Three molecules from ChEMBL document CHEMBL1201862, “PubChem BioAssay data set” (2004) can be followed below.

SMILES strings stand for the structures.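 Protocol summary: plate cells (96-well), add compound at 5 concentrations, incubate 48 h, interpolate endpoints linearly. GI50 marks 50% less growth.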 Active and inactive are the calls of the source. Cut-off read from the data, not from the text of the source: active = GI50 up to about 1.1 µM and inactive = higher.

What all share (experiment): inhibition of tumour cell growth, NCI panel, 48 h
The subject of assay [1] is MDA-N.
The subject of assay [2] is UACC-62.
In assay [3] the test system is CCRF-CEM.
Assay [4] concerns HOP-62.
For assay [5], the system named is SN12C.
For assay [6], the system named is MCF7.
The subject of assay [7] is EKVX.
Assay [8] concerns UO-31.
In assay [9] the test system is SK-MEL-2.
Assay [10] deals with LOX IMVI.
Assay [11] deals with OVCAR-3.
Assay [12] has as its system SK-MEL-28.
Assay [13] relates to NCI-H522.
Assay [14] deals with PC-3.
Assay [15] deals with OVCAR-4.
Assay [16] deals with A498.
Assay [17] concerns K562.
The subject of assay [18] is ACHN.
Assay [19] concerns SF-539.
For assay [20], the system named is MOLT-4.

As for `CN(C)CC1CCC/C(=C\c2ccc(N(C)C)cc2)C1=O` (stereo not given), the GI50 in [1] is 7.28 µM (inactive); in assay [2], 15.8 µM (inactive); in [3], > 100 µM (inactive); in assay [4] it was 18.8 µM (inactive); in assay [5] it was 16.1 µM (inactive); in assay [6] it was 1.02 µM (active). For the same molecule, the GI50 in assay [7] was 16.7 µM (inactive); in assay [8] it was 10.4 µM (inactive); in assay [9], 10.2 µM (inactive); in [10], 1.67 µM (inactive); in assay [11] it was 2.84 µM (inactive); in assay [12], 5.64 µM (inactive). The GI50 in assay [13] is 1.75 µM (inactive); in assay [14], 18.2 µM (inactive); in assay [15] it was 2.15 µM (inactive); in assay [16], 17.1 µM (inactive); in assay [17], 28.1 µM (inactive); in [18], 19.8 µM (inactive). For the same molecule, the GI50 in assay [19] was 15.3 µM (inactive); in [20], 4.97 µM (inactive).
As for `COc1cc(C2C3=C(COC3=O)OC(C)(C)Oc3cc4c(cc32)OCO4)cc(OC)c1O` (stereo not given), the GI50 in assay [1] is 0.199 µM (active); in assay [2] it was 3.27 µM (inactive); in assay [3] it was 1.36 µM (inactive); in assay [4] it was 0.791 µM (active); in [5], 2.79 µM (inactive); in assay [6] it was 0.364 µM (active). The GI50 in assay [7] was 4.12 µM (inactive); in assay [8], 7.1 µM (inactive); in assay [9], 14.6 µM (inactive); in assay [10] it was 0.706 µM (active); in assay [11] it was 0.437 µM (active); in assay [12], 0.973 µM (active). The GI50 in assay [13] was 0.244 µM (active); in assay [14] it was 0.444 µM (active); in [15], > 38.8 µM (inactive); in assay [16] it was 1.04 µM (active); in [17] it was 0.383 µM (active); in [18] it was 0.851 µM (active). The figures for the GI50 in assay [19] and in assay [20] were 0.467 µM (active) and 3.11 µM (inactive), respectively.
As to `O=C1CCCC2=C1CC1=C(CCCC1=O)N2c1ccc(-c2ccccc2)cc1`, the GI50 is > 100 µM (inactive) in assay [1]; > 66.5 µM (inactive) in assay [2]; > 100 µM (inactive) in assay [3]; > 100 µM (inactive) in [4]; > 100 µM (inactive) in assay [5]; > 100 µM (inactive) in assay [6]. Also, the GI50 in assay [7], in assay [8], in assay [9], in assay [10], in assay [11] and in assay [12] was > 100 µM (inactive) each time. Moreover, the GI50 in assay [13], in [14], in assay [15], in assay [16], in assay [17] and in assay [18] was > 100 µM (inactive) throughout. For the same molecule, the GI50 in assay [19] is > 72.6 µM (inactive); in assay [20] it was > 100 µM (inactive).
